For three compounds, ED50 and IC50 results are on record in patent US4822799A, “Pyrazolopyridine analogs of mevalonolactone and derivatives thereof useful for inhibiting cholesterol biosynthesis in mammals” (Sandoz Pharm. Corp., priority 1988, dated 1989).

Assay [1] concerns 3β-hydroxysterol synthesis. The experiment in a line: Test B. In Vivo Cholesterol Biosynthesis Inhibition Test. To be noted: Rattus norvegicus, po, rats, orally administered, 0.1-200 mg/kg. body weight, read-out: ED50 (50% inhibition of 3β-hydroxysterol synthesis).
Protocol: Test B. In Vivo Cholesterol Biosynthesis Inhibition Test:
In this test the rats are orally administered the test substance (compound of Formula I) at a dose of 0.1-200 mg/kg. body weight. The obtained ED50 is the dose of the test substance observed or calculated to produce a 50% inhibition of 3β-hydroxysterol synthesis.
In assay [2] the target is T1, 3-hydroxy-3-methylglutaryl coenzyme A (HMG-CoA) reductase (Rattus norvegicus, UniProt P51639).
T1 construct: from tissue; host or cells: liver microsomes of Sprague-Dawley rats (tissue and species from own knowledge of the cited documents)
T1 sequence (P51639 1-887): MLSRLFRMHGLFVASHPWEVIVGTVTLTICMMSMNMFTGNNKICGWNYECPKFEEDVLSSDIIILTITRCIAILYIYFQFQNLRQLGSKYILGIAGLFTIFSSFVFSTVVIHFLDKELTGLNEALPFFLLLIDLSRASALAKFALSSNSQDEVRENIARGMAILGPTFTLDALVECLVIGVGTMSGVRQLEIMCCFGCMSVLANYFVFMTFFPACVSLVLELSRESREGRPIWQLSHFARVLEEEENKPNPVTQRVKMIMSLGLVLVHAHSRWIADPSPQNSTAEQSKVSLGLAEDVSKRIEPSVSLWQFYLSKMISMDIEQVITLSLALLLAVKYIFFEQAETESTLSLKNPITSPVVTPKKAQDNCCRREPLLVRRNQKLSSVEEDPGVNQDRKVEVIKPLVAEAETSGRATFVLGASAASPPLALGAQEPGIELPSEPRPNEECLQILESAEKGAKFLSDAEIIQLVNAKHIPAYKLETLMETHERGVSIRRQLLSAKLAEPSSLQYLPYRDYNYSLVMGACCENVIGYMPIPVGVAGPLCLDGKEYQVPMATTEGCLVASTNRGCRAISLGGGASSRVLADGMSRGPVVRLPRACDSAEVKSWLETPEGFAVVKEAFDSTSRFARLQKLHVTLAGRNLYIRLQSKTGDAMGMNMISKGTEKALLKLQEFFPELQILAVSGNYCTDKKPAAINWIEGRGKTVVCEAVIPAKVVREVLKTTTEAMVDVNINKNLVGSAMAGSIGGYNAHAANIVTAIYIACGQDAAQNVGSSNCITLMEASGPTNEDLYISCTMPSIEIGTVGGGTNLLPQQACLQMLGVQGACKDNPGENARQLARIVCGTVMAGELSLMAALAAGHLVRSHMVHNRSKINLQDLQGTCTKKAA
In words: Test A. In Vitro Microsomal Assay of HMG-CoA Reductase Inhibition. The class given is biochemical. To be noted: test substance 0.001-2,000 μmolar, read-out: IC50 (50% inhibition of HMG-CoA reductase activity). On the procedure: Test A. In Vitro Microsomal Assay of HMG-CoA Reductase Inhibition:
This test is carried out precisely as described in column 53 of U.S. Pat. No. 4,613,610 and on page 30 of World (PCT) Published patent application No. 84/02131, both of which are hereby incorporated by reference as if set forth herein in their entirety. The concentration of the test substance (compound of Formula I) in the assay system is 0.001-2,000 μmolar. The obtained IC50 is the concentration of the test substance in the assay system observed or calculated to produce a 50% inhibition of HMG-CoA reductase activity.

In the case of `CC[C@H](C)C(=O)O[C@H]1C[C@@H](C)C=C2C=C[C@H](C)[C@H](CC[C@@H]3C[C@@H](O)CC(=O)O3)[C@H]21` [Mevinolin], in assay [1], the ED50 is 0.38 mg/kg.
With `Cc1nn(C)c2nc(C(C)C)c(/C=C/[C@@H](O)C[C@@H](O)CC(=O)O)c(-c3ccc(F)cc3)c12` [Example 2, Sodium (3R,5S)-(E)-3,5-dihydroxy-7-[1',3'-dimethyl-4'-(4"-fluorophenyl)-6'-(1"-methylethyl)-1H-pyrazolo[3,4-b]pyrid-5'-yl]hept-6-enoate], the IC50 in assay [2] stood at 10 nM.
Take `CC[C@H](C)C(=O)O[C@H]1CCC=C2C=C[C@H](C)[C@H](CC[C@@H]3C[C@@H](O)CC(=O)O3)[C@H]21` [Compactin]: in assay [1], the ED50 stood at 3.5 mg/kg.

A word on the ED50: it is the midpoint of the dose-response relation. For orientation: IC50 means the concentration at which inhibition is half-maximal.
